# Measured values published in patent US20070049564A1 (Wyeth, priority 2005, published 2007).
# Like-named read-outs stand apart in the source and are kept apart here.
# How the values were obtained:
# [1] = test system: E. faecalis GC 4555; assay: MIC, broth microdilution; conditions: Enterococcus faecalis
# [2] = test system: S. aureus GC 6467; assay: MIC, broth microdilution; conditions: Staphylococcus aureus
# [3] = test system: E. coli GC 2271; assay: MIC, broth microdilution; conditions: Escherichia coli
# [4] = test system: E. coli GC 2233; assay: MIC, broth microdilution; conditions: Escherichia coli
# [5] = test system: S. aureus GC 6469; assay: MIC, broth microdilution; conditions: Staphylococcus aureus
# [6] = test system: E. coli GC 4559; assay: MIC, broth microdilution; conditions: Escherichia coli
# Procedure: (§1) Antimicrobial susceptibility testing. The in vitro activities of the antibiotics are determined by the broth microdilution method as recommended by the National Committee for Clinical Laboratory Standards (NCCLS) (1). Mueller-Hinton II broth (MHBII)(BBL Cockeysville, Md.) is the medium employed in the testing procedures. Microtiter plates containing serial dilutions of each antimicrobial agent are inoculated with each organism to yield the appropriate density (10^5 CFU/ml) in a 100 μl final volume. The plates are incubated for 18-22 hours at 35° C. in ambient air.
# (§2) Representative compounds were first incubated in mouse serum for an hour prior to the in vitro testing against a panel of selected gram-positive and gram-negative bacteria strains. All compounds were also pre-incubated in water for an hour prior to testing as control. Representative compounds of Formula I were incubated in human serum prior to MIC determination.
# [7] = test system: E. faecalis GC 2265; assay: MIC, broth microdilution; conditions: Enterococcus faecalis
# [8] = test system: E. coli GC 2203; assay: MIC, broth microdilution; conditions: Escherichia coli
# [9] = test system: E. coli GC 2270; assay: MIC, broth microdilution; conditions: Escherichia coli
# [10] = test system: E. coli GC 4560; assay: MIC, broth microdilution; conditions: Escherichia coli
# [11] = test system: S. agalactiae GC 4564; assay: MIC, broth microdilution; conditions: Streptococcus agalactiae
# Procedure: as §1, §2
# [12] = test system: S. aureus GC 4536; assay: MIC, broth microdilution; conditions: Staphylococcus aureus
# [13] = test system: E. coli GC 1073; assay: MIC, broth microdilution; conditions: Escherichia coli
# [14] = test system: E. coli GC 2236; assay: MIC, broth microdilution; conditions: Escherichia coli
# [15] = test system: E. coli GC 2235; assay: MIC, broth microdilution; conditions: Escherichia coli
# [16] = test system: Staph.; assay: Range of MIC for Staph. strains, including MRSA; conditions: Staphylococcus aureus, MRSA
# [17] = test system: P. aeruginosa GC 2214; assay: MIC, broth microdilution; conditions: Pseudomonas aeruginosa
# [18] = test system: E. faecalis GC 2242; assay: MIC, broth microdilution; conditions: Enterococcus faecalis
# [19] = test system: E. coli GC 6465; assay: MIC, broth microdilution; conditions: Escherichia coli
# [20] = test system: E. coli; assay: Range of MIC for E. coli strains; conditions: Escherichia coli
smiles,measurement,setting,value
"CCCCN(CC(=O)Nc1cc(N(C)C)c2c(c1O)C(=O)C1=C(O)[C@]3(O)C(=O)C(C(N)=O)=C(O)[C@@H](N(C)C)[C@@H]3C[C@@H]1C2)C(=O)OCOC(=O)c1ccc(-c2ccccc2)cc1 [Example 21, ({[(2-{[(5aR,6aS,7S,10aS)-9-(aminocarbonyl)-4,7-bis(dimethylamino)-1,8,10a,11-tetrahydroxy-10,12-dioxo-5,5a,6,6a,7,10,10a,12-octahydrotetracen-2-yl]amino}-2-oxoethyl)(butyl)amino]carbonyl}oxy)methyl 1,1′-biphenyl-4-carboxylate]",MIC,"[1]; GC4555, read-out: MINIMAL INHIBITORY CONCENTRATION MIC, pre-incubated in Mouse Serum",1 µg/mL
same,MIC,"[1]; GC4555, read-out: MINIMAL INHIBITORY CONCENTRATION MIC, pre-incubated in Water",64 µg/mL
same,MIC,"[2]; GC6467, read-out: MINIMAL INHIBITORY CONCENTRATION MIC, pre-incubated in Mouse Serum",4 µg/mL
same,MIC,"[2]; GC6467, read-out: MINIMAL INHIBITORY CONCENTRATION MIC, pre-incubated in Water",> 64 µg/mL
same,MIC,"[3]; GC2271, read-out: MINIMAL INHIBITORY CONCENTRATION MIC, pre-incubated in Mouse Serum",0.5 µg/mL
same,MIC,"[3]; GC2271, read-out: MINIMAL INHIBITORY CONCENTRATION MIC, pre-incubated in Water",> 64 µg/mL
same,MIC,"[4]; GC2233, read-out: MINIMAL INHIBITORY CONCENTRATION MIC, pre-incubated in Mouse Serum",1 µg/mL
same,MIC,"[4]; GC2233, read-out: MINIMAL INHIBITORY CONCENTRATION MIC, pre-incubated in Water",> 64 µg/mL
same,MIC,"[5]; GC6469, read-out: MINIMAL INHIBITORY CONCENTRATION MIC, pre-incubated in Mouse Serum",4 µg/mL
same,MIC,"[5]; GC6469, read-out: MINIMAL INHIBITORY CONCENTRATION MIC, pre-incubated in Water",> 64 µg/mL
same,MIC,"[6]; GC4559, read-out: MINIMAL INHIBITORY CONCENTRATION MIC, pre-incubated in Mouse Serum",1 µg/mL
same,MIC,"[6]; GC4559, read-out: MINIMAL INHIBITORY CONCENTRATION MIC, pre-incubated in Water",> 64 µg/mL
same,MIC,"[7]; GC2265, read-out: MINIMAL INHIBITORY CONCENTRATION MIC, pre-incubated in Mouse Serum",1 µg/mL
same,MIC,"[7]; GC2265, read-out: MINIMAL INHIBITORY CONCENTRATION MIC, pre-incubated in Water",64 µg/mL
same,MIC,"[8]; GC2203, read-out: MINIMAL INHIBITORY CONCENTRATION MIC, pre-incubated in Mouse Serum",0.5 µg/mL
same,MIC,"[8]; GC2203, read-out: MINIMAL INHIBITORY CONCENTRATION MIC, pre-incubated in Water",> 64 µg/mL
same,MIC,"[9]; GC2270, read-out: MINIMAL INHIBITORY CONCENTRATION MIC, pre-incubated in Mouse Serum",1 µg/mL
same,MIC,"[9]; GC2270, read-out: MINIMAL INHIBITORY CONCENTRATION MIC, pre-incubated in Water",> 64 µg/mL
same,MIC,"[10]; GC4560, read-out: MINIMAL INHIBITORY CONCENTRATION MIC, pre-incubated in Mouse Serum",0.25 µg/mL
same,MIC,"[10]; GC4560, read-out: MINIMAL INHIBITORY CONCENTRATION MIC, pre-incubated in Water",> 64 µg/mL
same,MIC,"[11]; GC4564, read-out: MINIMAL INHIBITORY CONCENTRATION MIC, pre-incubated in Mouse Serum",0.5 µg/mL
same,MIC,"[11]; GC4564, read-out: MINIMAL INHIBITORY CONCENTRATION MIC, pre-incubated in Water",8 µg/mL
same,MIC,"[12]; GC4536, read-out: MINIMAL INHIBITORY CONCENTRATION MIC, pre-incubated in Mouse Serum",2 µg/mL
same,MIC,"[12]; GC4536, read-out: MINIMAL INHIBITORY CONCENTRATION MIC, pre-incubated in Water",32 µg/mL
same,MIC,"[13]; GC1073, read-out: MINIMAL INHIBITORY CONCENTRATION MIC, pre-incubated in Mouse Serum",1 µg/mL
same,MIC,"[13]; GC1073, read-out: MINIMAL INHIBITORY CONCENTRATION MIC, pre-incubated in Water",> 64 µg/mL
same,MIC,"[14]; GC2236, read-out: MINIMAL INHIBITORY CONCENTRATION MIC, pre-incubated in Mouse Serum",1 µg/mL
same,MIC,"[14]; GC2236, read-out: MINIMAL INHIBITORY CONCENTRATION MIC, pre-incubated in Water",> 64 µg/mL
same,MIC,"[15]; GC2235, read-out: MINIMAL INHIBITORY CONCENTRATION MIC, pre-incubated in Mouse Serum",0.5 µg/mL
same,MIC,"[15]; GC2235, read-out: MINIMAL INHIBITORY CONCENTRATION MIC, pre-incubated in Water",> 64 µg/mL
same,MIC,"[16]; read-out: Minimum inhibitory concentration (MIC), Staph. (mouse serum)",1 to 4 µg/mL
same,MIC,"[16]; read-out: Range of MIC, Staph (Mouse Serum)",1 to 4 µg/mL
same,MIC,"[17]; GC2214, read-out: MINIMAL INHIBITORY CONCENTRATION MIC, pre-incubated in Mouse Serum",> 64 µg/mL
same,MIC,"[17]; GC2214, read-out: MINIMAL INHIBITORY CONCENTRATION MIC, pre-incubated in Water",> 64 µg/mL
same,MIC,"[18]; GC2242, read-out: MINIMAL INHIBITORY CONCENTRATION MIC, pre-incubated in Mouse Serum",2 µg/mL
same,MIC,"[18]; GC2242, read-out: MINIMAL INHIBITORY CONCENTRATION MIC, pre-incubated in Water",32 µg/mL
same,MIC,"[19]; GC6465, read-out: MINIMAL INHIBITORY CONCENTRATION MIC, pre-incubated in Mouse Serum",4 µg/mL
same,MIC,"[19]; GC6465, read-out: MINIMAL INHIBITORY CONCENTRATION MIC, pre-incubated in Water",> 64 µg/mL
same,MIC,"[20]; 20 h, read-out: Range of MIC, E. coli (Mouse Serum)",0.5 to 8 µg/mL
same,MIC,"[20]; read-out: Minimum inhibitory concentration (MIC), E. coli (mouse serum)",0.5 to 8 µg/mL
same,MIC,"[20]; read-out: Minimum inhibitory concentration (MIC), E. coli (water)",> 64 µg/mL
same,MIC,"[20]; read-out: Range of MIC, E. coli (Water)",> 64 µg/mL
